Test systems include NCI-H460; TK-10; OVCAR-8; MDA-MB-435; T47D; HOP-92; RXF 393; MOLT-4; OVCAR-3; MDA-N; SNB-75; OVCAR-4; MCF7; CAKI-1; HCT-15; HCC 2998; NCI-H522; HCT-116; SK-OV-3.
What all share (experiment): growth of human tumour cells (NCI), 48 h

SMILES strings stand for the structures.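 In this assay, cells in 96-well plates receive the compound at five concentrations for 48 hours. Endpoints are linearly interpolated between the surrounding concentrations. GI50 marks 50% less growth.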 Active and inactive are the calls of the source. No stated cut-off is given here; in the data, active = GI50 up to about 1.1 µM and inactive = higher.

Take `Nc1ncnc2c1ccn2C1OC2COP(=O)(O)OC2C1O` (stereo not given): the GI50 in the experiment with NCI-H460 is 0.168 µM (active); in the experiment with TK-10, 0.25 µM (active); in the experiment on OVCAR-8, 0.0773 µM (active); with MDA-MB-435 it was 0.273 µM (active); in the experiment with T47D, 0.989 µM (active); in the experiment with HOP-92, 0.462 µM (active). For the same compound, the GI50 is 0.212 µM (active) in the experiment with RXF 393; 0.681 µM (active) in the experiment with MOLT-4; 0.275 µM (active) with OVCAR-3; 0.379 µM (active) in the experiment with MDA-N; 0.231 µM (active) in the experiment on SNB-75; 0.174 µM (active) in the experiment with OVCAR-4. The GI50 in the experiment with MCF7 is 0.444 µM (active); in the experiment with CAKI-1, 0.0904 µM (active); with HCT-15, 0.152 µM; with HCC 2998, 0.942 µM (active); in the experiment with NCI-H522, 0.14 µM (active); in the experiment with HCT-116, 0.17 µM (active). Also, in the experiment on SK-OV-3, the GI50 was 0.197 µM (active).
In the case of `COC1CC(COCc2ccccc2)CC(OC)O1` (stereo not given), the GI50 in the experiment with NCI-H460, in the experiment on TK-10, in the experiment with OVCAR-8, with MDA-MB-435, with T47D and in the experiment with HOP-92 was > 100 µM (inactive) each time. The GI50 in the experiment with RXF 393, in the experiment with MOLT-4, in the experiment with OVCAR-3, in the experiment on MDA-N, in the experiment with SNB-75 and with MCF7 was > 100 µM (inactive) in each case. Also, the GI50 is > 100 µM (inactive) in the experiment on CAKI-1; greater than 100 µM in the experiment on HCT-15; > 100 µM (inactive) with HCC 2998; > 100 µM (inactive) with NCI-H522; > 100 µM (inactive) in the experiment on HCT-116; > 100 µM (inactive) in the experiment on SK-OV-3.
In the case of `O=c1cc(-c2ccccc2)[nH]c2ccc(S)cc12`, the GI50 in the experiment with NCI-H460 was 31.8 µM (inactive); in the experiment with TK-10, 33.9 µM (inactive); in the experiment with OVCAR-8 it was 31.7 µM (inactive); in the experiment on MDA-MB-435, 21.4 µM (inactive); in the experiment with T47D, 15.1 µM (inactive); with HOP-92, 35.8 µM (inactive). For the same compound, the GI50 is 31.5 µM (inactive) in the experiment on RXF 393; 14.3 µM (inactive) in the experiment on MOLT-4; 28.6 µM (inactive) with OVCAR-3; > 10 µM (inactive) in the experiment on MDA-N; 24.6 µM (inactive) in the experiment with SNB-75; 57.1 µM (inactive) with OVCAR-4. Also, the GI50 was 24.2 µM (inactive) in the experiment on MCF7; 16.8 µM with HCT-15; 21 µM (inactive) in the experiment with HCC 2998; 21.7 µM (inactive) in the experiment with NCI-H522; 24.4 µM (inactive) in the experiment on HCT-116; 23.7 µM (inactive) in the experiment with SK-OV-3.
In the case of `CC(=O)OC1[C@@H](OC(C)=O)CN(OCc2ccccc2)C[C@H]1OC(C)=O` (stereo not given in full), the GI50 in the experiment with NCI-H460, with TK-10, in the experiment on OVCAR-8, with MDA-MB-435, in the experiment with T47D and in the experiment on HOP-92 was > 100 µM (inactive) in each case. Moreover, the GI50 in the experiment with RXF 393, with MOLT-4, with OVCAR-3, in the experiment with MDA-N, in the experiment on SNB-75 and in the experiment with OVCAR-4 was > 100 µM (inactive) each time. For the same compound, the GI50 in the experiment with MCF7 was > 100 µM (inactive); in the experiment on CAKI-1, > 100 µM (inactive); in the experiment on HCT-15 it was greater than 100 µM; with HCC 2998, > 100 µM (inactive); in the experiment with NCI-H522, > 100 µM (inactive); in the experiment on HCT-116, > 100 µM (inactive). For the same compound, the GI50 with SK-OV-3 was 33 µM (inactive).
`CC[C@@]1(O)C(=O)OCc2c1cc1n(c2=O)Cc2c-1nc1ccccc1c2/C=N\NC(=O)CN`: the GI50 in the experiment with NCI-H460 was 0.042 µM (active); in the experiment with TK-10 it was 26.1 µM (inactive); in the experiment with OVCAR-8 it was 0.273 µM (active); in the experiment on MDA-MB-435, 1.61 µM (inactive); in the experiment on T47D, 0.0486 µM (active); in the experiment on HOP-92, 1.15 µM (inactive). Further, the GI50 in the experiment on RXF 393 is 0.873 µM (active); with MOLT-4 it was < 0.0316 µM (active); in the experiment with OVCAR-3 it was 6.9 µM (inactive); in the experiment on MDA-N, 1.57 µM (inactive); with SNB-75, 0.133 µM (active); in the experiment with OVCAR-4 it was 9.46 µM (inactive). The GI50 in the experiment with MCF7 was 0.0495 µM (active); in the experiment on CAKI-1, 0.131 µM (active); in the experiment with HCT-15, 0.221 µM; in the experiment with HCC 2998 it was 2.21 µM (inactive); with NCI-H522 it was 1.02 µM (active); in the experiment with HCT-116, 0.419 µM (active).
As for `Cc1nc2c(Cl)cc(Cl)cc2c2c1CCO2`, the GI50 in the experiment with NCI-H460 was > 100 µM (inactive); in the experiment with TK-10, > 100 µM (inactive); in the experiment with OVCAR-8, > 100 µM (inactive); with MDA-MB-435, > 100 µM (inactive); in the experiment on T47D, > 100 µM (inactive); in the experiment on HOP-92, 73.1 µM (inactive). Moreover, the GI50 with RXF 393 was 87.3 µM (inactive); in the experiment on MOLT-4 it was 75.3 µM (inactive); in the experiment with MDA-N, > 100 µM (inactive); in the experiment with SNB-75, 60.8 µM (inactive); in the experiment on OVCAR-4, > 100 µM (inactive); in the experiment with MCF7, > 100 µM (inactive). The GI50 in the experiment on CAKI-1 was 23.3 µM (inactive); in the experiment on HCT-15 it was greater than 100 µM; in the experiment on HCC 2998, > 100 µM (inactive); in the experiment with NCI-H522, > 100 µM (inactive); in the experiment on HCT-116 it was > 100 µM (inactive).
On to `O=c1c2ncn(C3CC(O)C(CO)O3)c2nnn1Cc1ccccc1[N+](=O)[O-]` (stereo not given), for which the GI50 with NCI-H460 was > 100 µM (inactive); with TK-10 it was > 100 µM (inactive); with OVCAR-8, > 100 µM (inactive); with MDA-MB-435, > 100 µM (inactive); in the experiment with T47D, > 100 µM (inactive); with HOP-92 it was 57.8 µM (inactive). The GI50 in the experiment on RXF 393 is 17.8 µM (inactive); with MOLT-4, 29.4 µM (inactive); with OVCAR-3 it was 75 µM (inactive); in the experiment on MDA-N, > 100 µM (inactive); with SNB-75, > 100 µM (inactive); in the experiment with OVCAR-4, > 100 µM (inactive). The GI50 with MCF7 was > 100 µM (inactive); in the experiment with CAKI-1, > 100 µM (inactive); with HCT-15 it was greater than 100 µM; in the experiment on HCC 2998, > 100 µM (inactive); in the experiment on NCI-H522 it was > 100 µM (inactive); in the experiment with HCT-116, > 100 µM (inactive). In the experiment on SK-OV-3, the GI50 is > 100 µM (inactive).
`O=c1cc(-c2ccccc2)[nH]c2ccc(N3CCCC3)cc12`: the GI50 in the experiment on NCI-H460 was 0.0275 µM (active); in the experiment on TK-10 it was 5.62 µM (inactive); in the experiment with OVCAR-8 it was 0.0365 µM (active); in the experiment with MDA-MB-435, < 0.01 µM (active); in the experiment with T47D, > 100 µM (inactive); in the experiment with HOP-92, 0.037 µM (active). Also, the GI50 is 0.0196 µM (active) in the experiment on RXF 393; 0.0794 µM (active) in the experiment on MOLT-4; 0.0272 µM (active) in the experiment on OVCAR-3; < 0.01 µM (active) with MDA-N; 40.6 µM (inactive) in the experiment with SNB-75; 4.58 µM (inactive) with MCF7. Moreover, the GI50 with CAKI-1 is < 0.0175 µM (active); with HCT-15 it was 0.0743 µM; in the experiment on HCC 2998 it was 0.172 µM (active); in the experiment with NCI-H522 it was < 0.01 µM (active); in the experiment with HCT-116 it was < 0.0113 µM (active); with SK-OV-3, 0.0466 µM (active).
Regarding `Cc1nn(-c2ccccn2)c2c1C(SC#N)=C(C=O)CC2`, the GI50 in the experiment with NCI-H460 is 15.9 µM (inactive); in the experiment on TK-10, 1.67 µM (inactive); with OVCAR-8, 15.9 µM (inactive); in the experiment with MDA-MB-435, 18.1 µM (inactive); with T47D, 4.05 µM (inactive); in the experiment with HOP-92, 16.5 µM (inactive). For the same compound, the GI50 in the experiment on RXF 393 is 5.16 µM (inactive); in the experiment with MOLT-4, 2.57 µM (inactive); with OVCAR-3 it was 12.3 µM (inactive); with MDA-N, 17.7 µM (inactive); in the experiment with SNB-75, 15.3 µM (inactive); with MCF7, 10.5 µM (inactive). Also, the GI50 with CAKI-1 was 5.64 µM (inactive); in the experiment on HCT-15, 17.4 µM; in the experiment with HCC 2998, 11.9 µM (inactive); with NCI-H522 it was 19.5 µM (inactive); in the experiment on HCT-116, 16 µM (inactive); in the experiment on SK-OV-3, 19.3 µM (inactive).
Turning to `Cn1c(=O)c2[nH]c(N/N=C3/SCC(=O)N3Cc3ccccc3)nc2n(C)c1=O`, the GI50 with NCI-H460 is > 100 µM (inactive); in the experiment on TK-10 it was > 100 µM (inactive); in the experiment with OVCAR-8, > 100 µM (inactive); in the experiment on MDA-MB-435, 19.1 µM (inactive); with T47D, 41.1 µM (inactive); in the experiment with HOP-92, 15.7 µM (inactive). In addition, the GI50 is > 100 µM (inactive) in the experiment on RXF 393; 29 µM (inactive) in the experiment with MOLT-4; 74.5 µM (inactive) with OVCAR-3; 16.4 µM (inactive) in the experiment on MDA-N; 41.6 µM (inactive) in the experiment with OVCAR-4; 19.4 µM (inactive) with MCF7. Further, the GI50 with CAKI-1 is > 100 µM (inactive); in the experiment with HCT-15, greater than 100 µM; with HCC 2998 it was > 100 µM (inactive); in the experiment on NCI-H522, 50.8 µM (inactive); in the experiment on HCT-116, 45.4 µM (inactive); in the experiment on SK-OV-3, 30.2 µM (inactive).
Regarding `COc1ccc(/C=C/c2cc(OC)cc(=O)o2)cc1` [YANGONIN], the GI50 is > 100 µM (inactive) in the experiment with NCI-H460; 45.1 µM (inactive) with TK-10; > 100 µM (inactive) with OVCAR-8; > 100 µM (inactive) in the experiment on MDA-MB-435; > 100 µM (inactive) with T47D; 45.2 µM (inactive) with HOP-92. For the same compound, the GI50 in the experiment on RXF 393 is 44.2 µM (inactive); with MOLT-4, > 100 µM (inactive); with OVCAR-3, > 100 µM (inactive); in the experiment with MDA-N it was 91.6 µM (inactive); in the experiment on SNB-75, 20 µM (inactive); with OVCAR-4 it was > 100 µM (inactive). The GI50 with MCF7 was > 100 µM (inactive); in the experiment on CAKI-1, > 100 µM (inactive); in the experiment on HCT-15 it was greater than 100 µM; in the experiment with HCC 2998 it was > 100 µM (inactive); with HCT-116, 77.6 µM (inactive); in the experiment with SK-OV-3, 91.4 µM (inactive).

The values are drawn from ChEMBL document CHEMBL1201862, “PubChem BioAssay data set” (2004).
